The supplement of paper PMC10307832

Key:
[1] = compound: O=C(/C=C/c1ccccc1)NC(NC(=S)Nc1cccc2cccnc12)C(Cl)(Cl)Cl [Salubrinal] + COc1cc2c(Oc3ccc(NC(=O)C4(C(=O)Nc5ccc(F)cc5)CC4)cc3F)ccnc2cc1OCCCN1CCOCC1 [Foretinib] (partner 0.25 µM); experiment: relative viability (nuclei count vs DMSO), 5 days (fraction); higher = more cells survive
Summary of the method: (§1)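 Cells from lung cancer lines were seeded into 1536-well plates and, one day later, dosed by pin tool. Treatments were either a single drug or a fixed dose of an anchor drug with five library-drug doses (not always all listed) in √10 steps. After 5 days, nuclei were stained in a one-step fixation (final 0.05% Triton X-100, 1% formaldehyde, 1 ug/ml Hoechst) and counted on 4× images, and relative viability is the treated-to-vehicle nuclei ratio, as the median of duplicate plates.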

[2] = compound: Cc1ccc2nc(NCCN)c3ncc(C)n3c2c1 + CC1(C)CCC(c2ccc(Cl)cc2)=C(CN2CCN(c3ccc(C(=O)NS(=O)(=O)c4ccc(N[C@H](CCN5CCOCC5)CSc5ccccc5)c(S(=O)(=O)C(F)(F)F)c4)cc3)CC2)C1 [Navitoclax] (partner 0.5 µM); experiment: as above
Summary of the method: as §1

| Cell Line | relative viability ([1]; first compound 0.08 µM) | relative viability ([1]; first compound 0.8 µM) | relative viability ([1]; first compound 2.53 µM) | relative viability ([1]; first compound 8 µM) | relative viability ([2]; first compound 0.04 µM) | relative viability ([2]; first compound 0.1265 µM) | relative viability ([2]; first compound 0.4 µM) | relative viability ([2]; first compound 1.265 µM) | relative viability ([2]; first compound 4 µM) | relative viability ([1]; first compound 0.253 µM) |
| --- | --- | --- | --- | --- | --- | --- | --- | --- | --- | --- |
| 201T | 1.36 | 1.17 | 1.04 | 1.12 | 1.25 | 1.22 | 1.14 | 1.17 | 1.23 |  |
| A549 | 1.01 | 0.932 | 0.861 | 0.892 | 1.27 | 1.25 | 1.37 | 1.2 | 0.955 | 0.753 |
| A-427 | 0.993 | 1.18 | 1.02 | 1.17 | 0.914 | 0.864 | 0.946 | 1.02 | 0.968 | 1.32 |
| ABC-1 | 1.15 | 0.972 | 0.993 | 0.886 |  |  |  |  |  | 1.05 |
| BEN | 0.505 | 1.01 | 0.627 | 0.643 | 0.0603 | 0.0647 | 0.0665 | 0.0492 | 0.0759 | 0.867 |
| CAL-12T | 1.14 | 1.09 | 0.978 | 0.991 | 1.26 | 1.14 | 1.25 | 1.33 | 1.17 | 1.07 |
| COR-L23 | 1.1 | 1.13 | 1.01 | 0.889 | 1.05 | 0.944 | 1.1 | 0.973 | 0.886 | 0.932 |
| COR-L 105 | 0.981 | 1.22 | 0.892 | 1.02 | 0.809 | 0.802 | 0.802 | 0.899 | 0.698 | 1.14 |
| Calu-6 | 0.979 | 0.907 | 0.806 | 0.803 | 0.829 | 0.799 | 1.05 | 0.807 | 0.321 | 0.865 |
| ChaGo-K-1 | 0.989 | 0.892 | 0.869 | 0.802 | 0.983 | 1.15 | 0.913 | 0.976 | 0.782 | 0.956 |
| EBC-1 | 0.112 | 0.12 | 0.102 | 0.0993 | 0.388 | 0.393 | 0.327 | 0.334 | 0.191 | 0.0951 |
| EKVX | 0.755 | 0.82 | 0.714 | 0.792 | 1.1 | 0.964 | 0.924 | 0.992 | 0.883 | 0.776 |
| EMC-BAC-2 | 0.975 | 1.21 | 1.03 | 0.98 | 1.17 | 1.18 | 1.06 | 1.15 | 1.17 | 1 |
| EPLC-272H | 0.853 | 0.65 | 0.64 | 0.519 | 1.01 | 1.09 | 1.17 | 1.04 | 0.93 | 0.655 |
| H3255 | 0.898 | 1.01 | 0.822 | 0.874 | 0.666 | 0.479 | 0.638 | 0.535 | 0.469 | 0.953 |
| HARA | 0.836 | 0.917 | 1.08 | 0.69 | 1.16 | 1.15 | 1.14 | 1.08 | 1.21 | 0.628 |
| HCC-15 | 1.21 | 1.07 | 1.08 | 1.06 | 0.702 | 0.732 | 0.684 | 0.677 | 0.675 | 0.999 |

| Cell Line | relative viability ([1]; first compound 0.08 µM) | relative viability ([1]; first compound 0.8 µM) | relative viability ([1]; first compound 2.53 µM) | relative viability ([1]; first compound 8 µM) | relative viability ([2]; first compound 0.04 µM) | relative viability ([2]; first compound 0.1265 µM) | relative viability ([2]; first compound 0.4 µM) | relative viability ([2]; first compound 1.265 µM) | relative viability ([2]; first compound 4 µM) | relative viability ([1]; first compound 0.253 µM) |
| --- | --- | --- | --- | --- | --- | --- | --- | --- | --- | --- |
| HCC-44 |  |  |  |  | 1.1 | 0.901 | 0.951 | 0.829 | 0.937 |  |
| HCC-78 | 0.597 | 0.584 | 0.649 | 0.551 | 0.919 | 0.8 | 0.778 | 0.757 | 0.689 | 0.561 |
| HCC-366 | 0.929 | 0.96 | 0.943 | 0.915 | 1.26 | 1.07 | 1.03 | 0.997 | 1.02 | 0.947 |
| HCC-827 | 1.02 | 1.07 | 0.956 | 1.09 | 1.03 | 0.969 | 1.03 | 1.05 | 0.984 | 1.02 |
| HOP-62 | 1.07 | 1.22 | 1.08 | 1.14 | 0.956 | 1.05 | 0.859 | 1 | 0.954 | 0.981 |
| IA-LM | 1.21 | 1.17 | 1.12 | 0.775 | 0.792 | 0.779 | 0.707 | 0.623 | 0.587 | 0.764 |
| LC-2-ad | 0.887 | 0.919 | 0.966 | 0.886 | 0.404 | 0.431 | 0.491 | 0.526 | 0.508 | 0.939 |
| LCLC-97TM1 | 0.908 | 0.862 | 0.901 | 1.03 | 0.57 | 0.444 | 0.39 | 0.392 | 0.487 | 0.885 |
| LCLC-103H | 0.849 | 0.818 | 0.768 | 0.817 |  |  |  |  |  | 0.687 |
| LK-2 | 0.983 | 1.6 | 1.24 | 1.09 | 0.831 | 0.65 | 0.886 | 0.77 | 0.789 | 1.18 |
| LOU-NH91 | 0.948 | 0.957 | 0.921 | 0.99 | 0.684 | 0.687 | 0.724 | 0.672 | 0.65 | 1.02 |
| LU99A | 0.92 | 0.841 | 0.703 | 0.789 | 0.784 | 0.822 | 0.761 | 0.883 | 0.782 | 0.802 |
| LXF-289 | 1.12 | 1.01 | 0.963 | 0.925 | 0.946 | 0.909 | 0.936 | 0.922 | 0.952 | 0.909 |
| NCI-H23 | 1.13 | 1.08 | 0.894 | 0.959 | 0.867 | 0.904 | 0.822 | 0.791 | 0.814 | 0.999 |
| NCI-H322M | 1.07 | 0.969 | 0.832 | 0.856 | 1.15 | 1.16 | 1.19 | 1.25 | 1.22 | 1.07 |
| NCI-H358 | 0.783 | 0.718 | 0.71 | 0.606 |  |  |  |  |  | 0.597 |
| NCI-H441 | 1.24 | 1.03 | 0.947 | 0.862 | 0.56 | 0.684 | 1.03 | 0.401 | 0.635 | 0.917 |
